Legend:
[1] = test system: subjects with PSC and concomitant IBD; test: Phase 2a INTEGRIS-PSC: IBD symptoms (partial Mayo Score); assay type: in vivo, human
Description: Questionnaires to assess PROs will be administered at Baseline, Weeks 4 and 12(Parts 1, 2, and 3) and at Week 24 (Part 3 only), and will include the Chronic Liver Disease Questionnaire (CLDQ), the Itch Numeric Rating Scale (NRS), and the Partial Mayo Score (PMS), when available for use. See A. N. Naegeli, et al. (2015) International Journal of Dermatology 54 (6): 715-722 and Z. M. Younossi, et al. (1999) Gut 45:295-300, the entire contents of which are hereby incorporated by reference in their entirety.

[2] = Plasma and liver concentrations in BALB/c.Mdr2−/− mice at harvest; assay type: in vivo, mouse
Experimental: (§1) (S)-4-((2-methoxyethyl)(4-(5,6,7,8-tetrahydro-1,8-naphthyridin-2-yl)butyl)amino)-2-(quinazolin-4-ylamino)butanoic acid (or PBS) was dosed once daily orally at 100 mg/kg, 300 mg/kg or 1000 mg/kg (see Table B-2) starting at 6 weeks after birth of the subject and continuing for 6 weeks. All animals were euthanized and necropsied at the end of week 12.
Plasma samples were assayed by a qualified non-GLP bioanalytical method. Liver samples were homogenized in five volumes of ice-cold water. For plasma and liver homogenate, 20 μL of sample was extracted with 100 μL methanol: acetonitrile (5:95 v: v) containing 10 ng/mL internal standard. The solution was centrifuged at 4000 RPM for 5 minutes and 70 μL of supernatant transferred to injection plate containing 70 μl water. An aliquot of 10 μL was injected to a Sciex 4000 system. Concentrations of (S)-4-((2-methoxyethyl)(4-(5,6,7,8-tetrahydro-1,8-naphthyridin-2-yl)butyl)amino)-2-(quinazolin-4-ylamino)butanoic acid in mouse plasma and liver homogenate were determined by using Analyst 1.6 software (AB Sciex, Foster City, CA). […] Using this bioanalytical method and four-times dilution of the samples, (S)-4-((2-methoxyethyl)(4-(5,6,7,8-tetrahydro-1,8-naphthyridin-2-yl)butyl)amino)-2-(quinazolin-4-ylamino)butanoic acid can be quantified in the range of 0.5-8000 ng/mL in plasma and liver homogenate.

[3] = test system: BALB/c.Mdr2−/− mouse model of biliary fibrosis; test: Connective tissue (picrosirius red) histology; assay type: in vivo; settings: 300 and 1000 mg/kg, 6 weeks
Description: The tissue source is BALBc.Mdr2-/−male mice that were 6 weeks old. The Mdr2(abcb4)−/− mouse model of sclerosing cholangitis has been previously described and is a model of spontaneously progressive hepatic fibrosis in mice with deletion of the biliary phospholipid flippase on fibrosis-susceptible background (Mdr2(abcb4)^−/−. BALB/c mouse). See N. Ikenaga, et al. (2015) Am J Pathol. 185 (2): 325-334, the entire contents of which are hereby incorporated by reference in their entirety.
as §1
Connective tissue stains were carried out to morphometrically assess fibrosis, through analysis of 10 high power fields per animal.

[4] = test system: subjects with PSC and suspected liver fibrosis; test: Phase 2a INTEGRIS-PSC: PRO-C3 (collagen synthesis); assay type: in vivo, human
Description: In Parts 1 and 2, plasma, serum, and urine biomarker samples were obtained at predetermined times as indicated in the Schedule of Events (see Table B-4). In Part 3, plasma and serum biomarker samples were obtained at predetermined times as indicated in the Schedule of Events (see Table B-5 and Table B-6). These samples were used to measure specific proteins, nucleotides and/or metabolites that were elevated in subjects with fibrosis, and/or pharmacodynamic markers that could change with inhibition of integrins αVβ6 and αVβ1. The samples were also used to perform exploratory investigations using metabolomic or proteomic methods for use in future studies in subjects with fibrotic diseases.
Absolute and relative changes from Baseline in liver fibrosis biomarkers (including PRO-C3 and ELF) and in ALP are presented in numerical and graphical forms by treatment and dose utilizing data from the timepoints specified in the Schedule of Events. Changes from Baseline to Week 12(Parts 1 and 2) and Week 24 (Part 3) in magnetic resonance (MR)-based liver imaging are also evaluated, as well as changes in PROs.

[5] = test system: subjects with PSC and suspected liver fibrosis; test: Phase 2a INTEGRIS-PSC: transient elastography (FibroScan) liver stiffness; assay type: in vivo, human; settings: 320 mg, Week 24, compared to an increase on placebo, Example B-5
Description: Transient elastography (TE) utilizes an ultrasound shear wave to assess the elasticity of the liver, that is, how “stiff” the liver tissue is. Fibrosis causes stiffening or hardening of tissue, and TE can be used to diagnose fibrosis and determine the degree of fibrosis. The FibroScan® device (FibroScan® is a registered trademark of ECHOSENS, Paris, France, for medical equipment and software) can be used for TE. (Kemp W, Roberts S., Aust Fam Physician. 2013 July; 42(7):468-71; and Ozturk A. et al., Abdom Radiol (NY), 2022 September; 47 (9): 3037-3050; each of which are hereby incorporated by reference in their entireties).
Each subject underwent an ultrasound-based transient elastography (FibroScan®) assessment at the screening and Week 12 study visits (Parts 1 and 2) and will undergo an ultrasound-based transient elastography (FibroScan®) assessment at the screening, at Week 12 study visits, and at Week 24 (Part 3 only). FibroScan® is a noninvasive technique that uses ultrasound-based transient elastography (TE) to assess liver stiffness measurement (LSM) and determine likelihood of clinically meaningful liver fibrosis.
The LSM, as assessed by TE, is expressed in kilopascals (kPa). Larger values (normal range approximately between 2 and 7 kPa) indicate a greater likelihood of clinically meaningful liver fibrosis. See H. Ehlken, et al. (2016) PloS ONE 11 (10): e0164224 and C. […]

αVβ1 integrin = αVβ1 integrin (Homo sapiens, UniProt P05556+P06756); test: Inhibition of αVβ1 integrin (IC50); assay type: binding; settings: read-out: 50% inhibitory concentration [IC50] αVβ1
αVβ1 integrin, sequence (P06756 31-1048): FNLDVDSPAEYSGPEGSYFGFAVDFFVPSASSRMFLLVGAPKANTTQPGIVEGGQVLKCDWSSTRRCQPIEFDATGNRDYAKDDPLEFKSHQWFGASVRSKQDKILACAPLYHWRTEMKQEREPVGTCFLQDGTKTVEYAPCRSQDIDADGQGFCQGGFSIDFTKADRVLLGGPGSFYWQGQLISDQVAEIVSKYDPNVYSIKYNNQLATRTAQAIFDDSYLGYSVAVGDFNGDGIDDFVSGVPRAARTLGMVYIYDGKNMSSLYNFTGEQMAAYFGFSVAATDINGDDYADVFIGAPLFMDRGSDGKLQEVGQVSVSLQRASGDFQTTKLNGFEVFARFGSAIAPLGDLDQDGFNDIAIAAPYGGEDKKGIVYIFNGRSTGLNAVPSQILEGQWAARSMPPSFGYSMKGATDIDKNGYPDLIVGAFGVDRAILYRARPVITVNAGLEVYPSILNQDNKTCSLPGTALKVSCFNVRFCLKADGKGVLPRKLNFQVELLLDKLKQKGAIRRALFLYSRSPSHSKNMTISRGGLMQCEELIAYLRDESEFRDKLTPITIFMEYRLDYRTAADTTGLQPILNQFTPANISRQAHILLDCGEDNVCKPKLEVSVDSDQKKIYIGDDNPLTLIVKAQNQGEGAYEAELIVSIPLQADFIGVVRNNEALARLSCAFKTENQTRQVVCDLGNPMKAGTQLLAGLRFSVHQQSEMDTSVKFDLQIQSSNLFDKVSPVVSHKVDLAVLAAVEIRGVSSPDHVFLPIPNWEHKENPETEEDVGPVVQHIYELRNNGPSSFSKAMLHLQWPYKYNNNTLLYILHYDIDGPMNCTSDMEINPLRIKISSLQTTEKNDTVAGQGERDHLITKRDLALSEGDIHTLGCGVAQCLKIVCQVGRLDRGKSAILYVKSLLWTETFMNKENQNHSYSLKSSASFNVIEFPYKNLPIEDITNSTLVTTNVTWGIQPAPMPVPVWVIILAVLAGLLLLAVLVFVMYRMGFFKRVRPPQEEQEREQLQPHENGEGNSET
αVβ1 integrin, sequence (P05556 21-798): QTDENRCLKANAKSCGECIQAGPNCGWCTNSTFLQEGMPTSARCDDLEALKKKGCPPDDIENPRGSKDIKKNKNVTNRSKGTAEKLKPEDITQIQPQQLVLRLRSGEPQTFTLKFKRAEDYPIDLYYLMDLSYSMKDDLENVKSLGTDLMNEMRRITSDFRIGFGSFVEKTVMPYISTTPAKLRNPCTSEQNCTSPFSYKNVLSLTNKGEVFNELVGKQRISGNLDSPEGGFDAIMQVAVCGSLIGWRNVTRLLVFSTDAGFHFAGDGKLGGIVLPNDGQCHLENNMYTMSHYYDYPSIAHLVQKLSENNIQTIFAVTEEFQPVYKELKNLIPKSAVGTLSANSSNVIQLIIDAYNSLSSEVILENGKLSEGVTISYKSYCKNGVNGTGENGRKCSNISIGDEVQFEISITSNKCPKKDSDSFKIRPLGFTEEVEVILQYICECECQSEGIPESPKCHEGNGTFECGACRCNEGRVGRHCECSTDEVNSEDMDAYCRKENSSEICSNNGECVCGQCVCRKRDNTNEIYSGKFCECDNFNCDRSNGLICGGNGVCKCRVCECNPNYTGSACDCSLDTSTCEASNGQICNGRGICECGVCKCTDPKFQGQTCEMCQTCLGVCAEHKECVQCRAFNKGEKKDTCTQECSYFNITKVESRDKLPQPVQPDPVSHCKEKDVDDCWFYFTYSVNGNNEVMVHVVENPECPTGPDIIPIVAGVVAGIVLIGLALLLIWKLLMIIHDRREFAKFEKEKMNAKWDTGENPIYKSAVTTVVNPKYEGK

Compound: COCCN(CCCCc1ccc2c(n1)NCCC2)CC[C@H](Nc1ncnc2ccccc12)C(=O)O [Bexotegrast, (S)-4-((2-methoxyethyl)(4-(5,6,7,8-tetrahydro-1,8-naphthyridin-2-yl)butyl)amino)-2-(quinazolin-4-ylamino)butanoic acid]
- IBD symptoms in patients with IBD ([1]; 40, 80, 160 mg, 12 weeks, Example B-3): no clinically-relevant changes
- IBD symptoms as measured by partial Mayo Score ([1]; patients with concomitant IBD, Example B-4): no change
- plasma and liver concentrations, comparison of dose groups ([2]; 100, 300 and 1000 mg/kg PO/QD, 6 weeks): higher levels in the 1000 mg/kg group
- Kp at 6 weeks ([2]; mouse, liver (relative to plasma), BALB/c.Mdr2−/− mice, after 6 weeks of PO/QD dosing, at harvest, read-out: Liver levels (ng/g) relative to the levels seen in the plasma (ng/mL)): 3 to 5
- fibrosis by picrosirius red histological staining [3]: significant reductions
- PRO-C3, difference to placebo ([4]; 40 mg (p<0.01) and 160 mg (p<0.05), Week 12, Example B-3): statistically significant differences from placebo
- PRO-C3 levels relative to placebo ([4]; 320 mg, Week 12, Example B-4): reduction
- collagen synthesis (PRO-C3) relative to placebo ([4]; all doses (40, 80, 160 mg), Week 12, Example B-3): reduced
- PRO-C3 relative to the placebo ([4]; all doses, statistical significance at Week 12 for 40 mg, 160 mg and pooled groups, Example B-4): reduced
- median liver stiffness by transient elastography (TE) [5]: numerical reduction
- median liver stiffness by transient elastography (TE) ([5]; listed as bexotegrast): decrease
- IC50 (αVβ1 integrin): 3.4 nM

From US20250120975A1, “INTEGRIN INHIBITORS FOR TREATMENT OF PRIMARY SCLEROSING CHOLANGITIS” (Pliant Therapeutics, Inc., priority 2023, published 2025)
